The source of these data is patent US20230181905A1, “Systems, Devices, and Methods for Enhancing the Neuroprotective Effects of Non-Invasive Gamma Stimulation with Pharmacological Agents” (Massachusetts Institute of Technology, priority 2021, published 2023).

What all share (format): in vivo, mouse
One assay deals with amyloid plaques (D54D2). Briefly: D54D2 amyloid plaque staining in APOE4-KI 5×FAD hippocampus. The settings on record: APOE4-KI 5×FAD mice, PLX3397 diet combined with 21 days A+V GENUS. The method, then:
Given that APOE4+ individuals accumulate A #earlier than non-carriers, and that APOE facilitates the response of microglia to amyloid, GENUS outcomes in an APOE4-KI amyloid model were examined. To this end, 21d A+V (audio and visual) GENUS in APOE-KI 5×FAD model was performed and amyloid and microglial outcomes were examined.
Next, 7-8 month old male APOE4-KI 5×FAD animals were treated with 3 weeks of PLX3397 diet (or control), followed by 21 days of A+V GENUS, during which animals remained on their diets (FIG. 37).

A further assay concerns perineuronal nets (WFA). The experiment in a line: WFA staining of perineuronal nets. To be noted: 5×FAD mice. From the text: Perineuronal nets (PNN) of neurons are necessary for neuronal integrity and circuit plasticity. Loss of PNN is shown to occur in AD. […] Therefore, the effect of the treatment on PNN was examined.
Antibodies: IBA1 (Synaptic Systems, Cat #234 004, dilution-1:500; Wako Chemicals, Cat #019-19741, dilution-1:500), GFAP (Thermo Fisher Scientific, Cat #130300, dilution-1:500), MEF2C (Cell Signaling Technology, Cat #5030T), MAC2 (Cedarlane Labs, Cat #CL8942AP, dilution-1:500), vGAT (Synaptic Systems, Cat #131 013, dilution-1:500), vGLUT (Synaptic Systems, Cat #1135 302, dilution-1:500), NeuN (Synaptic Systems, Cat #266 004, dilution-1:1000), MHC2 (EMD Millipore, Cat #MABF33, dilution-1:500), C1q (Abcam, Cat #ab182451, dilution-1:500), synaptophysin (Sigma, Cat #S5768). The following combination of secondary antibodies were used: (1) Alexa Fluor 488, 594 and 647, (2) Alexa Fluor 555 and 647, (3) Alexa Fluor 594 and 647, or (4) Alexa Fluor 488 and 647. All secondary antibodies were obtained from Invitrogen. Biotinylated Wisteria Floribunda Lectin (Vector Laboratories, Cat #B-1355, dilution-1:500) followed by streptavidin conjugated Alexa Fluor 594 (Thermo Fisher Scientific, Cat #S32356, dilution-1:1000) was used to examine WFA.

A further assay concerns synaptophysin. The experiment in a line: Synaptophysin western blot and immunohistochemistry. To be noted: 5×FAD mice. The procedure:
Loss of synapses and neurons are closely associated with higher neuroinflammatory response and cognitive decline in AD. Therefore, synaptic markers in the visual cortex of Plx3397 and/or GENUS treated mice were evaluated. […] Thus, whether these treatments had any effect on neuronal density by immunohistochemical analysis of neuronal marker NeuN was examined (Synaptic Systems, #266 004) positive cells (FIG. 4A).
The visual cortex was dissected out and snap-frozen in liquid nitrogen and stored in an −80° C. freezer until processing. Samples were homogenized using a glass homogenizer with RIPA (50 mM Tris HCl pH 8.0, 150 mM NaCl, 1% NP-40, 0.5% sodium deoxycholate, 0.1% SDS) buffer which contains protease and phosphatase inhibitor. The concentration of proteins in samples were quantified using a Bio-Rad protein assay. Equal concentrations of proteins were prepared and added with SDS—sample buffer. […] of protein was loaded onto 4-20% polyacrylamide gels and electrophoresed. Protein was transferred from acrylamide gels to nitrocellulose membranes for 12 min (Semi-dry system, Bio-Rad). Membranes were blocked using BSA (5% w/v) diluted in TBS containing 0.1% Tween-20 (TBSTw), then incubated in primary antibodies overnight at 4° C. The following day, they were washed three times with TBSTw and incubated with horseradish peroxidase-linked secondary antibodies (GE Healthcare) at room temperature for 60 min. After three further washes with TBSTw, membranes were treated with chemiluminescence substrates and the blots were visualized (Chem doc, Bio-Rad). Signal intensities were quantified using ImageJ 1.46q and normalized to values of loading control.
These observations led to examination of the effect of Plx3397 administration on neuronal integrity. […]
The brain was perfused with PBS and fixed with 4% PFA. […] Signal intensities were quantified using ImageJ 1.46q and normalized to values of loading control.
Background: In western blotting, separated proteins are transferred to a membrane and probed.

[1] abbreviates: hippocampus, chronic Plx3397 vs control.

The structures appear in SMILES notation.

For the compound `FC(F)(F)c1ccc(CNc2ccc(Cc3c[nH]c4ncc(Cl)cc34)cn2)cn1` [Plx3397, Pexidartinib], the amyloid plaque number result with amyloid plaques (D54D2) (hippocampus CA1) is listed as “significant reduction”. In the assay on amyloid plaques (D54D2), the amyloid total area entry is “significant reduction”. Further, in the assay with amyloid plaques (D54D2) (vs standard diet), the “amyloid staining mean intensity” value is “significant reduction”. The “WFA content within the microglia compared to control mice” value in the assay on perineuronal nets (WFA) is reported as “higher”. Moreover, in the assay on perineuronal nets (WFA) (setting [1]), the WFA signals result is reported as “increased”. Moreover, in the assay with perineuronal nets (WFA) (visual cortex), the PNN coverage result is “increased”, the “WFA overall signal intensity” value was “increased” and the WFA signals is reported as 130.4±7.178 % of no treatment control. Further, the “WFA+ PNN signals” value with perineuronal nets (WFA) (visual cortex, Plx3397 50 days) came to 289400000±9384029 au. In the assay on synaptophysin (setting [1]), the synaptophysin result is “increased”. The same compound had a synaptophysin signals in the assay with synaptophysin (visual cortex, IHC, Plx3397 50 days) of 6524128709±177336289 au. Besides, in the assay on synaptophysin (visual cortex, control 100±12.03), the “synaptophysin level (western blot)” value came out at 185.3±23.83.
